Assay [1] concerns the target human dopamine D3 receptor (Homo sapiens (Human), UniProt P35462). Briefly: Human D2-like receptor competition binding in HEK cells, D3. The settings on record: for D2/D3: ratio of Ki at D2 over Ki at D3. An excerpt: (§1) Human dopamine D2-long (D2) and D3 (D3) receptors were expressed in HEK cells. In brief, stably transfected HEK cells expressing the human D2-long and the D3 dopamine receptor were developed using the pIRES bicistronic expression vector (CLONTECH; Palo Alto, Calif.). […] For comparison, human dopamine D4 (D4) receptors were obtained from HEK 293 cells stably transfected with a PCR product of a human cDNA coding for the D4.4 form of the human D4 dopamine receptor.
(§2) The procedures to determine the binding affinities at the human dopamine D2-like receptors, the binding affinities at the serotonin 5HT1A, 5HT2A and 5HT2c receptors and functional mitogenesis assay are known in the art. […] Both of these references are incorporated by reference.

The target in assay [2] is human dopamine D2-long (D2) receptor (Homo sapiens (Human), UniProt P14416). Briefly: Human D2-like receptor competition binding in HEK cells, D2. The settings on record: hD2L.
Sequence of human dopamine D2-long (D2) receptor (P14416 whole entry): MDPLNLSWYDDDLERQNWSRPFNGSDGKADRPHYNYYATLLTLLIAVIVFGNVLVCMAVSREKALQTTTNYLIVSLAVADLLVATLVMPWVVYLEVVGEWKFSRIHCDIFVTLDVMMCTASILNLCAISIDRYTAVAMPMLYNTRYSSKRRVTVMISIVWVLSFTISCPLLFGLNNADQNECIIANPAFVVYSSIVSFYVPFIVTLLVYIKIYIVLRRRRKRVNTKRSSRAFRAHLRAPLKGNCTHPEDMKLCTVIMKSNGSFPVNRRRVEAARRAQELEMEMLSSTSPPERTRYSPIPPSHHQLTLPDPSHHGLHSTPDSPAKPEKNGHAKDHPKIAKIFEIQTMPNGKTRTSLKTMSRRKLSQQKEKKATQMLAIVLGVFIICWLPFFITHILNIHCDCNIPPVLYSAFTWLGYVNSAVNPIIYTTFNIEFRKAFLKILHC
Source text: as §1, §2

Assay [3] concerns the target T1, D2 receptor (human) in CHOp-cells (Homo sapiens (Human), UniProt P14416). Briefly: D2 inhibition of quinpirole stimulation of mitogenesis (antagonist assay). The assay is classed as cell-based. The settings on record: inhibition of 30 nM quinpirole stimulated mitogenesis, read-out: IC50 ± S.E.M., D2. As for the experimental part:
(§3) The cells were incubated at 37° C. in α-MEM with 10% FBS, 0.05% penicillin-streptomycin, and 200 μg/mL of G418. After 48 hours, the cells were rinsed twice with serum-free α-MEM and incubated for 24 hours at 37° C. In the functional assay for agonism, the medium was removed and replaced with 90 μl of serum-free α-MEM and 10 μl of test compound in sterile water; in the antagonist assay, the test compound was diluted in sterile water plus 30 nM quinpirole. After another 24-hour incubation at 37° C., 0.25 μCi of [^3H]thymidine was added to each well and the plates were further incubated for 2 hours at 37° C. The cells were then trypsinized, and the plates were filtered and counted as usual in the art. Quinpirole was run on every plate as an internal standard.
as §2

The target in assay [4] is serotonin 5HT2A receptor (Homo sapiens (Human), UniProt P28223). Briefly: Serotonin receptor binding, 5HT2A. To be noted: ratio of affinities.
Sequence of serotonin 5HT2A receptor (P28223 whole entry): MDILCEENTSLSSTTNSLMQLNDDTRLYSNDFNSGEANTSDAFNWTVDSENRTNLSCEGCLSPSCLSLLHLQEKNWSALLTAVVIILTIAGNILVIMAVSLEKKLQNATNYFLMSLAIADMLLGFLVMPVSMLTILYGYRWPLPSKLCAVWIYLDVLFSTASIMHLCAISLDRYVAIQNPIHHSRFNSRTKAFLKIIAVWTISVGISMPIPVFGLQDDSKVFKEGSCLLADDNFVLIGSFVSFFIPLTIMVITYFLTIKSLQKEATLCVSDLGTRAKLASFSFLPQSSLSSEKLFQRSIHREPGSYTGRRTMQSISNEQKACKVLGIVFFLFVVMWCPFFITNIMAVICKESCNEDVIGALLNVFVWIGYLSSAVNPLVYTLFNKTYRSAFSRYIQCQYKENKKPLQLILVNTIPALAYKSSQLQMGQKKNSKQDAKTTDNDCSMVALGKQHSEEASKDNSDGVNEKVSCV
Source text: as §2

Assay [5] deals with serotonin 5HT1A receptor (Homo sapiens (Human), UniProt P08908). Briefly: Serotonin receptor binding, 5HT1A. The settings on record: ratio of affinities. An excerpt:
(§4) The procedures to determine the binding affinities at the human dopamine D2-like receptors, the binding affinities at the serotonin 5HT1A, 5HT2A and 5HT2c receptors and functional mitogenesis assay are known in the art. See J. Med. Chem. 2005, 48, 839-848. See also, NIDA Research Monograph #178, Proceedings of the College of Drug Dependence, p. 440-466, 1998. Both of these references are incorporated by reference.

The target in assay [6] is serotonin 5HT2c receptor (Homo sapiens (Human), UniProt P28335). Briefly: Serotonin receptor binding, 5HT2c. To be noted: ratio of affinities, 5HT2c over D3.
Sequence of serotonin 5HT2c receptor (P28335 33-458): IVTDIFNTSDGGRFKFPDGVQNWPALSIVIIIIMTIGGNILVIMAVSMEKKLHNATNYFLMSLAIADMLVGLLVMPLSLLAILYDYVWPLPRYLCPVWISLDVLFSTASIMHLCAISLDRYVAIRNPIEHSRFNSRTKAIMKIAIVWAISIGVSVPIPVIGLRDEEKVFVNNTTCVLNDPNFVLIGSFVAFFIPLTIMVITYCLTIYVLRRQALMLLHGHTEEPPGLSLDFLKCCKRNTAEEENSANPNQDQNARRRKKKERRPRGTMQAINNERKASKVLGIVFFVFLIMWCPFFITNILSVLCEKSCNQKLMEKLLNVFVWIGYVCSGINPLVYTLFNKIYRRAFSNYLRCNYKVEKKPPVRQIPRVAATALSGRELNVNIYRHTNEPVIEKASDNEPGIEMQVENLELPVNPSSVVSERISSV
Source text: as §2

In assay [7] the target is T2, human dopamine D3 receptors in CHO cells (Homo sapiens (Human), UniProt P35462). Briefly: D3 inhibition of quinpirole stimulation of mitogenesis (antagonist assay). The assay is classed as cell-based. To be noted: inhibition of 30 nM quinpirole stimulated mitogenesis, CHOp cells; read-out: IC50 ± S.E.M., D3. As to the method: as §3, §2
T2 sequence (P35462 whole entry): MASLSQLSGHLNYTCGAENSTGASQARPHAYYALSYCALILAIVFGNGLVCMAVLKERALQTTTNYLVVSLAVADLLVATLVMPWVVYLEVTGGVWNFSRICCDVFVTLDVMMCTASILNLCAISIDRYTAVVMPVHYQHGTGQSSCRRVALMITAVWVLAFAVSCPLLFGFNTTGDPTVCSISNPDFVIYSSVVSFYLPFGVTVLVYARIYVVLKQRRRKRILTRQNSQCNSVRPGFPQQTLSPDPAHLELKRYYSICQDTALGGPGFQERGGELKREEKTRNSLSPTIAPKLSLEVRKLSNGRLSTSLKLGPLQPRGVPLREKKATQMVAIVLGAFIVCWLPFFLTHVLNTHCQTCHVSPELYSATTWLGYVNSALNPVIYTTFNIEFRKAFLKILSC
The target of assay [8] is T1, D2 receptor (human) in CHOp-cells. Briefly: D2 stimulation of mitogenesis (agonist assay). The assay is classed as cell-based. The settings on record: for EC50: read-out: partial agonist activity: EC50, D2. As to the method: as §3, §4
Assay [9] concerns the target T2, human dopamine D3 receptors in CHO cells. Briefly: D3 stimulation of mitogenesis (agonist assay). The assay is classed as cell-based. To be noted: CHOp cells; for EC50: read-out: partial agonist activity: EC50, D3 (converted). As for the experimental part: as §3, §4
For assay [10], the target named is T3, human D4.4 dopamine receptor (Homo sapiens (Human), UniProt P21917). Briefly: Human D2-like receptor competition binding in HEK cells, D4. To be noted: for Ki: HEK 293 cells, hD4.4; for D4/D3 Ki ratio: head printed D4/D2, values correspond to D4 Ki over D3 Ki.
T3 sequence (P21917 whole entry): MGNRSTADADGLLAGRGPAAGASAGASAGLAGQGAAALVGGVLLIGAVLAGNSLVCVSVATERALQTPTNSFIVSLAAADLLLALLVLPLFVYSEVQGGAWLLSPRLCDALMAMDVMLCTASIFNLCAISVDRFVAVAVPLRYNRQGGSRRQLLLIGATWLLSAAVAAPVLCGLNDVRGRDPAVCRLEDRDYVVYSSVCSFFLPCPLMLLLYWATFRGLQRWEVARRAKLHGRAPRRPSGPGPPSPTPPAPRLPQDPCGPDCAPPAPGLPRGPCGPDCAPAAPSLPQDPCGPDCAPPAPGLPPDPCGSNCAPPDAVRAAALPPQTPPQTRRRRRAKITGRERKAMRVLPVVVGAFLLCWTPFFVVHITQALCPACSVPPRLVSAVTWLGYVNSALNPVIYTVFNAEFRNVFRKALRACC
Source text: as §1, §2

Assay [11] has as its target D1a dopamine receptors (Homo sapiens (Human), UniProt P21728). To be noted: cited from earlier work.
In assay [12] the target is T3, human D4.4 dopamine receptor. The settings on record: HEK 293 cells; relative to D2 and D3; cited from earlier work.
Assay [13] has as its system σ1 binding sites. The settings on record: cited from earlier work.
Assay [14] concerns σ2 binding sites. The settings on record: cited from earlier work.
Where [15] appears, read: HEK cells, hD3, read-out: D3 Ki.
Setting [16] is: Table 3, unit inferred, with spread, read-out: D3 binding affinity.

We go through ten compounds from patent US8748608B2, “4-phenylpiperazine derivatives with functionalized linkers as dopamine D3 receptor selective ligands and methods of use” (The United States of America as Represented by the …, priority 2007, dated 2014).

Like-named read-outs stand apart in the source and are kept apart here.

Sequence of serotonin 5HT1A receptor (P08908 whole entry): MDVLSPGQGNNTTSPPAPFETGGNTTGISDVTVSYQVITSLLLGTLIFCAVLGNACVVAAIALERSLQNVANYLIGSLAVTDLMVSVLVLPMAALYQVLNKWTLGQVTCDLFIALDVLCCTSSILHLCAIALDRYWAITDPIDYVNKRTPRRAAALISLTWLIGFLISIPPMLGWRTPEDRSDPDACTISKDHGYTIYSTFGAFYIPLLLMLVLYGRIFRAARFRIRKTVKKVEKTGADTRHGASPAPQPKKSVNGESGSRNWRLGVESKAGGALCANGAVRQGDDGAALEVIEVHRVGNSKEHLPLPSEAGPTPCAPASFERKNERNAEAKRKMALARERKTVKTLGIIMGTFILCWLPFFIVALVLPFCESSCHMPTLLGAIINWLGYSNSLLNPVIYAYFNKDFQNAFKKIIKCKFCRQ
Sequence of human dopamine D3 receptor (P35462 whole entry): as the sequence (P35462 whole entry) above
T1 sequence (P14416 whole entry): as the sequence (P14416 whole entry) above
Sequence of D1a dopamine receptors (P21728 whole entry): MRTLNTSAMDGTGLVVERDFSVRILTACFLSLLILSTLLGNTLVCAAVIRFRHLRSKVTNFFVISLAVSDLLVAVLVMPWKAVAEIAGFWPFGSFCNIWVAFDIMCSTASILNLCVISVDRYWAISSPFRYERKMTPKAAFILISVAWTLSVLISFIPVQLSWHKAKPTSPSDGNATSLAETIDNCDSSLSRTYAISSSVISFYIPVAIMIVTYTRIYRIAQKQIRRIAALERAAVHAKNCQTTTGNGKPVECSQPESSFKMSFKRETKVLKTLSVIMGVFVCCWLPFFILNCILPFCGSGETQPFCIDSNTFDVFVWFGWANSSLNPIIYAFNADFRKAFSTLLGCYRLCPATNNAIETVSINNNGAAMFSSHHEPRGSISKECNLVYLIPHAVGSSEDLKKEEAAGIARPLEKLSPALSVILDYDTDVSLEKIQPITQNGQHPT

The IC50 is the concentration at which inhibition is half-maximal. As for `O=C(NC/C=C/CN1CCN(c2cccc(Cl)c2Cl)CC1)c1ccc(-c2cccc(=O)[nH]2)cc1` [Compound 9, N-(4-(4-(2,3-Dichloro-phenyl)-piperazin-1-yl)-trans-but-2-enyl)-4-(6-oxo-1,6-dihydro-pyridin-2-yl)-benzamide], the Ki in assay [1] (setting [15]) is 0.6 nM; in assay [1] (setting [16]), 0.6 ± 0.1 nM; in [2] it was 23.6 nM. Further, the half-inhibitory concentration (IC50) in assay [3] was 41 ± 8 nM.

For `Cc1cccc(-c2ccc(C(=O)NC/C=C/CN3CCN(c4cccc(Cl)c4Cl)CC3)cc2)n1` [Compound 10, N-(4-(4-(2,3-Dichloro-phenyl)-piperazin-1-yl)-trans-but-2-enyl)-4-(6-methyl-pyridin-2-yl)-benzamide], the 5HT2A/D3 in [4] is 66. In assay [5], the 5HT1A/D3 was found to be 221. Besides, the values for the Ki in [1] (setting [15]), in assay [1] (setting [16]) and in [2] were 1.4 nM, 1.4 ± 0.3 nM and 105 nM, respectively. Besides, the D2/D3 in [1] was determined as 75. In addition, the 5HT2c/D in [6] came to 69. The IC50 in assay [7] came to 6.7 ± 2.6 nM; in assay [3], 1300 ± 320 nM.

With `Cc1cccnc1-c1ccc(C(=O)NC/C=C/CN2CCN(c3cccc(Cl)c3Cl)CC2)cc1` [Compound 11, N-(4-(4-(2,3-Dichlorophenyl)piperazin-1-yl)-trans-but-2-enyl)-4-(3-methyl-pyridin-2-yl)-benzamide], in [4], the 5HT2A/D3 amounted to 29. The 5HT1A/D3 in [5] amounted to 58. For the same compound, the Ki in assay [1] (setting [15]) worked out at 1.6 nM; in assay [1] (setting [16]), 1.6 ± 0.4 nM; in assay [2], 92 nM. For the same compound, the D2/D3 in assay [1] was determined as 58. In addition, the 5HT2c/D in [6] is given as 19. Besides, the 50% inhibitory concentration (IC50) in [7] stood at 25.6 ± 8.5 nM; in assay [3] it was 368 ± 113 nM.

In general, EC50 refers to the concentration that produces a half-maximal response. Consider `O=C(NC/C=C/CN1CCN(c2cccc(Cl)c2Cl)CC1)c1ccc(-c2cccc[n+]2[O-])cc1` [Compound 12, N-(4-(4-(2,3-Dichloro-phenyl)-piperazin-1-yl)-trans-but-2-enyl)-4-(pyridin-N-oxide-2-yl)-benzamide], for which the Ki in assay [1] (setting [15]) stood at 1.1 nM; in [1] (setting [16]) it was 1.1 ± 0.3 nM; in assay [2], 25.8 nM. Moreover, the “partial agonist activity: % stimulation, D2” value in assay [8] was 31%. For the same compound, the EC50 in assay [8] worked out at 231 nM. The IC50 in assay [3] came to 22.9 ± 2 nM.

In the case of `COc1ccccc1N1CCN(C/C=C/CNC(=O)c2ccc(-c3ccccn3)cc2)CC1` [Compound 14, N-(4-(4-(2-Methoxy-phenyl)-piperazin-1-yl)-trans-but-2-enyl)-4-pyridin-2-yl-benzamide], the Ki is 2.9 nM in [1] (setting [15]) and 2.9 ± 1.1 nM in assay [1] (setting [16]). In [7], the half-maximal inhibitory concentration (IC50) was 42.6 ± 7.9 nM.

As to `COc1ccccc1N1CCN(C/C=C/CNC(=O)c2ccc3c(c2)Cc2ccccc2-3)CC1` [Compound 15, N-(4-(4-(2-methoxyphenyl)piperazin-1-yl)-trans-but-2-enyl)-9H-fluorene-2-carboxamide], the Ki in assay [2] was 48.4 nM. Besides, in assay [3], the 50% inhibitory concentration (IC50) amounted to 179 ± 48 nM.

`O=C(NCCC(O)CN1CCN(c2cccc(Cl)c2Cl)CC1)c1ccc(-c2ccccn2)cc1` (centres unmarked) [Compound 16, N-(4-(4-(2,3-Dichlorophenyl)piperazin-1-yl)-3-hydroxybutyl)-4-pyridin-2-yl-benzamide]: the 5HT2A/D3 in [4] turned out to be 14. The 5HT1A/D3 in [5] amounted to 11. Further, the Ki was found to be 3 nM in assay [1] (setting [15]), 3 ± 0.2 nM in assay [1] (setting [16]), 4.62 µM in assay [10] and 267 nM in assay [2]. In addition, the D2/D3 in assay [1] is listed as 89. The “partial agonist activity: % stimulation, D2” value in assay [8] came to 26%. In addition, the figures for the concentration giving a half-maximal response (EC50) in [8] and in [9] were 15.8 ± 2.7 nM and 1 ± 0.1 nM, respectively. The 5HT2c/D in assay [6] amounted to 38. The “partial agonist activity: % stimulation, D3” value in assay [9] is listed as 48%. For the same compound, in [10], the “D4/D3 Ki ratio” value was determined as 1540.

`COc1ccccc1N1CCN(CC(O)CCNC(=O)c2ccc(-c3ccccn3)cc2)CC1` (centres unmarked) [Compound 18, N-(3-Hydroxy-4-(4-(2-methoxy-phenyl)-piperazin-1-yl)-butyl)-4-pyridin-2-yl-benzamide]: the 5HT2A/D3 in assay [4] is given as 248. For the same compound, the 5HT1A/D3 in [5] was 13. The Ki in assay [1] (setting [15]) worked out at 2.8 nM; in [1] (setting [16]) it was 2.8 ± 0.8 nM; in assay [10], 1.49 µM; in assay [2], 284 nM. Also, the D2/D3 in assay [1] is listed as 101. The 5HT2c/D in assay [6] came to 1407. In addition, in [10], the “D4/D3 Ki ratio” value amounted to 532. Also, the IC50 in [7] worked out at 12.8 ± 1.3 nM.

For the compound `O=C(NCC(O)CCN1CCN(c2cccc(Cl)c2Cl)CC1)c1ccc(-c2ccccn2)cc1` (centres unmarked) [Compound 21, N-(4-(4-(2,3-Dichlorophenyl)piperazin-1-yl)-2-hydroxybutyl)-4-(pyridin-2-yl)-benzamide], the 5HT2A/D3 in assay [4] was found to be 31. Besides, the 5HT1A/D3 in [5] is reported as 30. The Ki was 0.5 nM in assay [1] (setting [15]), 0.5 ± 0.1 nM in assay [1] (setting [16]) and 28.4 nM in assay [2]. Also, the D2/D3 in assay [1] came to 57. The 5HT2c/D in assay [6] is 50. Further, the “partial agonist activity: % stimulation, D3” value in assay [9] worked out at 20%. Also, in [9], the EC50 was 3.4 nM. For the same compound, the figures for the IC50 in assay [7] and in [3] were 5.4 ± 1.8 nM and 88.3 ± 15.7 nM, respectively.

For the compound `COc1cc([125I])cc(C(=O)NC2CC3CCCC(C2)N3Cc2ccccc2)c1OC` (centres unmarked) [^125I-IABN], the “affinity to D1a dopamine receptors” value in assay [11] is recorded as “low affinity”. In addition, in assay [12], the “fold lower affinity to human D4.4 dopamine receptors” value is 7- to 10 fold. Also, in assay [13], the “affinity to σ1 binding sites” value is given as “low affinity”. Also, the “affinity to σ2 binding sites” value in [14] is “low affinity”.
